From ChEMBL document CHEMBL4270669 (J Med Chem, 2018)
Active and inactive are the calls of the source. The calls are words filed in the database; no cut-off is given here.

Legend:
[1] = biological target: T1, Phosphatidylinositol 4,5-bisphosphate 3-kinase catalytic subunit alpha isoform (Homo sapiens, UniProt P42336)
[2] = Inhibition of TORC1 in human A2058 cells assessed as decrease in S6 phosphorylation at Ser235/236 after 1 hr by Western blot analysis; assay type: cell-based; conditions: A2058, 1 h
[3] = biological target: Serine/threonine-protein kinase mTOR (Homo sapiens, UniProt P42345)
[4] = Inhibition of TORC2 in human A2058 cells assessed as decrease in PKB/Akt phosphorylation at Ser473 after 1 hr by Western blot analysis; assay type: cell-based; conditions: A2058, 1 h
[5] = tested on: Mus musculus; test: Increase in insulin levels in C57BL/6JRj mouse plasma at 50 mg/kg, po administered as single dose; assay type: functional, organism-based
[6] = tested on: Mus musculus; test: Antiepileptic activity in Tsc1flox/flox/GFAP-Cre conditional knocked out mouse model assessed as reduction in seizures at 50 mg/kg, po qd treated from days 21 to 53 postnatal by electroencephalography; assay type: functional, organism-based
[7] = tested on: Mus musculus; test: Increase in glucose levels in C57BL/6JRj mouse plasma at 50 mg/kg, po administered as single dose; assay type: functional, organism-based
[8] = tested on: Rattus norvegicus; test: Increase in glucose levels in Sprague-Dawley rat plasma at 10 mg/kg, po administered as single dose after 8 hrs; assay type: functional, organism-based
[9] = tested on: OVCAR-3; test: Antitumor activity against human OVCAR3 cells xenografted in BALB/C nude mouse assessed as tumor growth inhibition at 50 mg/kg, po administered daily for 28 days relative to control; assay type: functional; conditions: OVCAR-3, po, 672 h, read-out: TGI
[10] = tested on: Rattus norvegicus; test: Increase in insulin levels in Sprague-Dawley rat plasma at 10 mg/kg, po administered as single dose; assay type: functional, organism-based
[11] = tested on: Mus musculus; test: Toxicity in BALB/C nude mouse xenografted with human OVCAR3 cells assessed as body weight loss at 50 mg/kg, po administered daily for 28 days relative to control; assay type: organism-based; conditions: in vivo, 672 h
[12] = biological target: Phosphatidylinositol 4,5-bisphosphate 3-kinase catalytic subunit beta isoform (Homo sapiens, UniProt P42338)
Phosphatidylinositol 4,5-bisphosphate 3-kinase catalytic subunit beta isoform, sequence (P42338 whole entry, canonical isoform): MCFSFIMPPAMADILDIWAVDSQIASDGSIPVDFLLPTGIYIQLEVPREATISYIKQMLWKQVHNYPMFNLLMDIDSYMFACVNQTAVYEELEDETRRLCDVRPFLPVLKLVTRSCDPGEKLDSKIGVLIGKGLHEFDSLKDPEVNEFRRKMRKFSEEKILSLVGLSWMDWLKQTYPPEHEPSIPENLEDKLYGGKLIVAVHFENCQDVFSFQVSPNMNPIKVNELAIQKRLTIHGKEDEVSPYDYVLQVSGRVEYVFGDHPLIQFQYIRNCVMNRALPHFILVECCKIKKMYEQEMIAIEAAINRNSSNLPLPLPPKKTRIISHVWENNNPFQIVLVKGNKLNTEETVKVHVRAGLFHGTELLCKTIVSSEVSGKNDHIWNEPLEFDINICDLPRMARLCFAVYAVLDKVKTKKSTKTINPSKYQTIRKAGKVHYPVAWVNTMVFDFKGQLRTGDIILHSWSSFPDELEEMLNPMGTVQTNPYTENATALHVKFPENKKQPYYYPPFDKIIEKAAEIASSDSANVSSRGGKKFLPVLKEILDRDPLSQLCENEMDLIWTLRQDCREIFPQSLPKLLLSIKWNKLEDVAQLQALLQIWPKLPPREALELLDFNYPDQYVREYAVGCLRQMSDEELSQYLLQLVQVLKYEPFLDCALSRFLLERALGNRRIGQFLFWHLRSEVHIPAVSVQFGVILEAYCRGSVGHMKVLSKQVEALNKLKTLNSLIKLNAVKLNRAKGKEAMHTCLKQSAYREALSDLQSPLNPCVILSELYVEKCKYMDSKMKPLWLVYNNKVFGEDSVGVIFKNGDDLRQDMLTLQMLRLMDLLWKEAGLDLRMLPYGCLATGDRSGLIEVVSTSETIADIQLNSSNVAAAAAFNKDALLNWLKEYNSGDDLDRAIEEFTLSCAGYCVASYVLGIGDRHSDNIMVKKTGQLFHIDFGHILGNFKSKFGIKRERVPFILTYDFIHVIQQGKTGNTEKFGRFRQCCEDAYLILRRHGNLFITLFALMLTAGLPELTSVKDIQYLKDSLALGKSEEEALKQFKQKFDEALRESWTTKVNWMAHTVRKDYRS
Description: Inhibition of human PI3Kbeta (118 to 1070 residues) expressed in mammalian expression system by KINOMEscan assay

[13] = biological target: Phosphatidylinositol 4-kinase beta (Homo sapiens, UniProt Q9UBF8)
Phosphatidylinositol 4-kinase beta, sequence (Q9UBF8 whole entry, canonical isoform): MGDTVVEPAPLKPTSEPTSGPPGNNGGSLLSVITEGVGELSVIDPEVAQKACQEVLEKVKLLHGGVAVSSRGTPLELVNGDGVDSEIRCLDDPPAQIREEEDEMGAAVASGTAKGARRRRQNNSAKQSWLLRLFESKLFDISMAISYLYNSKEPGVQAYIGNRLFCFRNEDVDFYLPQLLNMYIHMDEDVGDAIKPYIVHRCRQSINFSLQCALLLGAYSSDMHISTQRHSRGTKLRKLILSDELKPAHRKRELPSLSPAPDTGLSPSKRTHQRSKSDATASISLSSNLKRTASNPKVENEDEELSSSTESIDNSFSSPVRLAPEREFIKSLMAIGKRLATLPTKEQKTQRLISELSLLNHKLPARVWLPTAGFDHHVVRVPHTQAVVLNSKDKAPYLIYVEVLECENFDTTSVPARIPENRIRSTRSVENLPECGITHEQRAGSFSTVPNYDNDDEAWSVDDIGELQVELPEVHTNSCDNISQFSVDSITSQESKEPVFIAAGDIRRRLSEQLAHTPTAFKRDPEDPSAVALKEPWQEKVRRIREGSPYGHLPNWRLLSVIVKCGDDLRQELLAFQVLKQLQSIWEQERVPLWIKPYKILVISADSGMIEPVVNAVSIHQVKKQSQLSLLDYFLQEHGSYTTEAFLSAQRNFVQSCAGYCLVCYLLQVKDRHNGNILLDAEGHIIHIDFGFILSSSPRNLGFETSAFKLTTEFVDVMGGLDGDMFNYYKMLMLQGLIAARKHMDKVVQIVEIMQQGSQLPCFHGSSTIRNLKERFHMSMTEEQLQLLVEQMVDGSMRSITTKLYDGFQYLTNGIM
Description: Inhibition of human PI4Kbeta (1 to 828 residues) expressed in mammalian expression system by KINOMEscan assay

[14] = biological target: Phosphatidylinositol 4,5-bisphosphate 3-kinase catalytic subunit gamma isoform (Homo sapiens, UniProt P48736)
Phosphatidylinositol 4,5-bisphosphate 3-kinase catalytic subunit gamma isoform, sequence (P48736 whole entry, the tested form may be a part, canonical isoform): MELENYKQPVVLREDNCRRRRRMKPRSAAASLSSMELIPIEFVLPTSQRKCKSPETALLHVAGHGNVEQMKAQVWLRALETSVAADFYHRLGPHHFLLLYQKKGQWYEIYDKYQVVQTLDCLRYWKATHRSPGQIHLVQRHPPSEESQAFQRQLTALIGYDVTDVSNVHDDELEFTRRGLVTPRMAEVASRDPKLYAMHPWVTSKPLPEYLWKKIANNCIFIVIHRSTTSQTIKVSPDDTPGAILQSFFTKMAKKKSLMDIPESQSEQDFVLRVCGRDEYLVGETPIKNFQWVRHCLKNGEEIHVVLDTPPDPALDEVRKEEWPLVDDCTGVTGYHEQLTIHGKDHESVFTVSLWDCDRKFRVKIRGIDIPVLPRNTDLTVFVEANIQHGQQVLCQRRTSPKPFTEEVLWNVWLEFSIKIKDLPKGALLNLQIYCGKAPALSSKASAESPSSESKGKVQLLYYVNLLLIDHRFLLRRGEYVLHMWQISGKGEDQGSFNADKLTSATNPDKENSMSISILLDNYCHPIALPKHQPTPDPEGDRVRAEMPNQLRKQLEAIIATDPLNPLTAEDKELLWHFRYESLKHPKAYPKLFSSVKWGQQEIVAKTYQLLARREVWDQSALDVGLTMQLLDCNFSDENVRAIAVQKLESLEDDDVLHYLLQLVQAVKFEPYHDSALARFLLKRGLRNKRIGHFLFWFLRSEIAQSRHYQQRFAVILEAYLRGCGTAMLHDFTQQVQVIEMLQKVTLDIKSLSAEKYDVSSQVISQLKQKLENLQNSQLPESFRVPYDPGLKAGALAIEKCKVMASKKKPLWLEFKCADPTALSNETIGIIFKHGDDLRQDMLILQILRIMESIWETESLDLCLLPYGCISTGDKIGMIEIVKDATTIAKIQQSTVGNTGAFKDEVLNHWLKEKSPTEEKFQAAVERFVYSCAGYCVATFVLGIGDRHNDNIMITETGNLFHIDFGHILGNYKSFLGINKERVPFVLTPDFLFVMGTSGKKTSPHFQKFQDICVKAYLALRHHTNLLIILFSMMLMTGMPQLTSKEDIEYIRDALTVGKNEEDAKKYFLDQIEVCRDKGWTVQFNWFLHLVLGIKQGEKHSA
Description: Inhibition of human PI3Kgamma (144 to 1102 residues) expressed in mammalian expression system by KINOMEscan assay

[15] = biological target: Phosphatidylinositol 3-kinase catalytic subunit type 3 (Homo sapiens, UniProt Q8NEB9); test: Inhibition of human VPS34 (282 to 879 residues) expressed in mammalian expression system by KINOMEscan assay
Phosphatidylinositol 3-kinase catalytic subunit type 3, sequence (Q8NEB9 whole entry, the tested form may be a part, canonical isoform): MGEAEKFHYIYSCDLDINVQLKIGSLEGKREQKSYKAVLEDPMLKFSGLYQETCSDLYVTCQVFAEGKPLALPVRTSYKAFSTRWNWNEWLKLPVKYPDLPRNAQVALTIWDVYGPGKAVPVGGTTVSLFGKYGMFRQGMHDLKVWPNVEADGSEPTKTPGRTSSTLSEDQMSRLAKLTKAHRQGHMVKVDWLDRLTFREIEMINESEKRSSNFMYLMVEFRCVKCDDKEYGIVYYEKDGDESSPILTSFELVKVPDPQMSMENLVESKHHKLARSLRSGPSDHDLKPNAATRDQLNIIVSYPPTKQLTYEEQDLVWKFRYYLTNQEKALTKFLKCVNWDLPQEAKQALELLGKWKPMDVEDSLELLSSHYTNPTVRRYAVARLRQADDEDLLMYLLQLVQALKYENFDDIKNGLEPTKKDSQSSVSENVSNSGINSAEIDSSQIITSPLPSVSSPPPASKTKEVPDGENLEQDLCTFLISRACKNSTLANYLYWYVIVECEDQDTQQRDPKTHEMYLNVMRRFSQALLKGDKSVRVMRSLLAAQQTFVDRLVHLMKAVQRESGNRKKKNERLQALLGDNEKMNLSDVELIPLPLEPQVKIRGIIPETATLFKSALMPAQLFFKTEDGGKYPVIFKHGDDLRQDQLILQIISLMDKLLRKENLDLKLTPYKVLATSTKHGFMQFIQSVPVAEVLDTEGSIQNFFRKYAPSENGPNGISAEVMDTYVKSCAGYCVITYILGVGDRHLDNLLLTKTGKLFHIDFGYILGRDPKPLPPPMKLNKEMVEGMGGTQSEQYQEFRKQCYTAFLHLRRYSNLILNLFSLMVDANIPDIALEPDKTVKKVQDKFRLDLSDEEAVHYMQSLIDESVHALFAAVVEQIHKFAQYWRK

[16] = biological target: T1, Phosphatidylinositol 4,5-bisphosphate 3-kinase catalytic subunit alpha isoform; remark: listed apart in the source
Description: Inhibition of human PI3Kalpha (108 to 1068 residues) expressed in mammalian expression system by KINOMEscan assay

[17] = biological target: T2, Phosphatidylinositol 4,5-bisphosphate 3-kinase catalytic subunit delta isoform (Homo sapiens, UniProt O00329)
T2 sequence (O00329 whole entry): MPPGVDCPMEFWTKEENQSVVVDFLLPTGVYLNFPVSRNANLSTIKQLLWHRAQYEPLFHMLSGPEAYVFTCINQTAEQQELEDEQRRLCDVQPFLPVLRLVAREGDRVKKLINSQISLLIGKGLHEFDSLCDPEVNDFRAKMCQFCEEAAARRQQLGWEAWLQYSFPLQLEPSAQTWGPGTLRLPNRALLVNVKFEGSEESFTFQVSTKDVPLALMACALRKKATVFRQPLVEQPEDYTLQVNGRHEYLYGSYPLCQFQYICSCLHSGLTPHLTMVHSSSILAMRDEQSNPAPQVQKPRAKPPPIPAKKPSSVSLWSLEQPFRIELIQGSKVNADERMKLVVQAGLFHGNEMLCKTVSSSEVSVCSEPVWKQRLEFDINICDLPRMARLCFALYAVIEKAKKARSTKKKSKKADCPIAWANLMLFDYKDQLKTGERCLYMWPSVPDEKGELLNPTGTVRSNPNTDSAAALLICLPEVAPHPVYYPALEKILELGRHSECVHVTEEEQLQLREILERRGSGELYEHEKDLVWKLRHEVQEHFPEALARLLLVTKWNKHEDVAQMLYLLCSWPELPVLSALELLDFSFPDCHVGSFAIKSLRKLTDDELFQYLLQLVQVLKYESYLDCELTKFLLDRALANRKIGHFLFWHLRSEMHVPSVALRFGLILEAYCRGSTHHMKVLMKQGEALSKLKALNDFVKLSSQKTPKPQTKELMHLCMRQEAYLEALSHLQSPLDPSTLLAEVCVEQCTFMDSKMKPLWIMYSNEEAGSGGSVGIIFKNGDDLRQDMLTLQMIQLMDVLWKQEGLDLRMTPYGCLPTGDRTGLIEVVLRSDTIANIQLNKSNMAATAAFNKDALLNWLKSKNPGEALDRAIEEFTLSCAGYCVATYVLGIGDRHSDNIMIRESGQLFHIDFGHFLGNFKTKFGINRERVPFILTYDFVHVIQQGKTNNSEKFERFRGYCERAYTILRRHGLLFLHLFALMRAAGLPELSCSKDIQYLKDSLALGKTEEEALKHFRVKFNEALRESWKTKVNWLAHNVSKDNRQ
Description: Inhibition of human PI3Kdelta (108 to 1044 residues) expressed in mammalian expression system by KINOMEscan assay

T1 sequence (P42336 whole entry, canonical isoform): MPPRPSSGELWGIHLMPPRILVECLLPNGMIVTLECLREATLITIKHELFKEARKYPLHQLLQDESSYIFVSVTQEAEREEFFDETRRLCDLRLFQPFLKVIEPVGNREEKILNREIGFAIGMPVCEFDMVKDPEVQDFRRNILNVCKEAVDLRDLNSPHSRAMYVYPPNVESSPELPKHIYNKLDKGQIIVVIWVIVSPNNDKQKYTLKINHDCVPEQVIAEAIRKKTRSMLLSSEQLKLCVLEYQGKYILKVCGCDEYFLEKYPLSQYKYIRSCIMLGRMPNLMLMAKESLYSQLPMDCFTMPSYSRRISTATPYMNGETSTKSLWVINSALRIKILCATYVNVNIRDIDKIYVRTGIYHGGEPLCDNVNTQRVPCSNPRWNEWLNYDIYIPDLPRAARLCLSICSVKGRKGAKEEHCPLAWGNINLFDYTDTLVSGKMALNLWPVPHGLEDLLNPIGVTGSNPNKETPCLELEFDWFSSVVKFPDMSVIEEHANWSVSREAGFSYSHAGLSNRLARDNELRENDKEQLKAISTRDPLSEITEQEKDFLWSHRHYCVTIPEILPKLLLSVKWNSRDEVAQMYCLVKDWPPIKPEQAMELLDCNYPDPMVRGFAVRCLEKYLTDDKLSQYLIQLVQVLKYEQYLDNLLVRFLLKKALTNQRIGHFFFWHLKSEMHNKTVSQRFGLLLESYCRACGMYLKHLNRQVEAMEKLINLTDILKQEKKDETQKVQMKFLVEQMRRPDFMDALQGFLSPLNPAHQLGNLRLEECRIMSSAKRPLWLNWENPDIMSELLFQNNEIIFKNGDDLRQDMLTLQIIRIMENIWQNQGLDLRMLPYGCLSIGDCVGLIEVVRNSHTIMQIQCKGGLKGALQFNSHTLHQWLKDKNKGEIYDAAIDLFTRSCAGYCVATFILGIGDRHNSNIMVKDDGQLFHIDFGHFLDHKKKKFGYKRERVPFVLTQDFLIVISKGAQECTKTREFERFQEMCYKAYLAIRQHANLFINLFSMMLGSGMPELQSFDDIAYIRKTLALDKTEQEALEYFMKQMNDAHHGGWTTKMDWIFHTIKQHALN

| Structure (SMILES) | Ki [1] | IC50 [2] | Ki [3] | IC50 [4] | further results |
| --- | --- | --- | --- | --- | --- |
| Nc1cc(C(F)F)c(-c2nc(N3C4COCC3C4)nc(N3C4COCC3C4)n2)cn1 | > 20000 nM | 5770 nM | 551 nM | 17900 nM |  |
| C[C@@H]1CN(c2nc(-c3cnc(N)cc3C(F)F)nc(N3C[C@@H](C)O[C@@H](C)C3)n2)C[C@H](C)O1 | 15400 nM | 10400 nM | 650 nM | 20900 nM |  |
| Nc1cc(C(F)F)c(-c2nc(N3C4COCC3COC4)nc(N3C4COCC3COC4)n2)cn1 | 2380 nM | 275 nM | 31 nM | 357 nM |  |
| Nc1cc(C(F)(F)F)c(-c2nc(N3CCOCC3)nc(N3CCOCC3)n2)cn1 [BIMIRALISIB] |  |  |  |  | Activity [5]: Active; Activity [6]: inactive; Activity [7]: Active; Activity [8]: Active; inhibition in vivo at 50 mg/kg [9]: > 50%; Activity [10]: Active; Activity [11]: Non-Toxic |
| Nc1cc(C(F)(F)F)c(-c2nc(N3C4CCC3COC4)cc(N3C4CCC3COC4)n2)cn1 | 5670 nM | 1940 nM | 435 nM | 3320 nM |  |
| CC1(C)CN(c2nc(-c3cnc(N)cc3C(F)F)nc(N3CCOC(C)(C)C3)n2)CCO1 | 8790 nM | 2330 nM | 73.4 nM | 4820 nM |  |
| Nc1cc(C(F)F)c(-c2nc(N3C[C@@H]4C[C@H]3CO4)nc(N3C[C@@H]4C[C@H]3CO4)n2)cn1 | > 20000 nM | 1560 nM | 18.5 nM | 4040 nM |  |
| CNC(=O)c1cccc(-c2ccc3c(N4CCOC[C@@H]4C)nc(N4CCOC[C@@H]4C)nc3n2)c1 [VISTUSERTIB] |  |  |  |  | Kd [12]: 3300 nM; Kd [13]: > 30000 nM; Kd [14]: 8400 nM; Kd [15]: 23000 nM; Kd [16]: 33 nM; Kd [17]: 1500 nM |
| Nc1cc(C(F)F)c(-c2nc(N3C[C@H]4C[C@@H]3CO4)nc(N3C[C@H]4C[C@@H]3CO4)n2)cn1 | 4630 nM | 12600 nM | 308 nM | 17700 nM |  |
| CO[C@H]1CC[C@H](N2C(=O)CNc3ncc(-c4ccc(C(C)(C)O)nc4)nc32)CC1 [ONATASERTIB] |  |  |  |  | Kd [13]: 39 nM; Kd [15]: 2500 nM |
| COC(OC)c1cc(N)ncc1-c1nc(N2CCOCC2)nc(N2CCOCC2)n1 | 129 nM | 2110 nM | 474 nM | 1200 nM |  |
| CC(C)n1nc(-c2ccc3oc(N)nc3c2)c2c(N)ncnc21 [SAPANISERTIB] |  |  |  |  | Kd [15]: 8200 nM |
| COc1cc(N)ncc1-c1nc(N2CCOCC2)nc(N2CCOCC2)n1 | 693 nM | 1920 nM | 483 nM | 1850 nM |  |
| Nc1cc(C(F)F)c(-c2nc(N3CCOCC3)nc(N3C4CCC3COC4)n2)cn1 | 25.8 nM | 113 nM | 11.2 nM | 156 nM |  |
| Nc1cc(C(F)F)c(-c2cc(N3C4CCC3COC4)nc(N3C4CCC3COC4)n2)cn1 | 2090 nM | 164 nM | 12 nM | 287 nM |  |

Further compounds by falling IC50 [2], results first:

| Ki [1] | IC50 [2] | Ki [3] | IC50 [4] | Structure (SMILES) | further results |
| --- | --- | --- | --- | --- | --- |
| > 20000 nM | 1300 nM | 60.2 nM | 1210 nM | Nc1cc(C(F)F)c(-c2nc(N3C4CCCC3COC4)nc(N3C4CCCC3COC4)n2)cn1 |  |
| > 20000 nM | 1190 nM | 79.9 nM | 3570 nM | C[C@@H]1COC[C@@H](C)N1c1nc(-c2cnc(N)cc2C(F)F)nc(N2[C@H](C)COC[C@H]2C)n1 |  |
| 41 nM | 926 nM | 911 nM | 729 nM | Nc1cc(C(F)(F)F)c(-c2nc(N3CCOCC3)cc(N3CCOCC3)n2)cn1 |  |
|  | 553 nM |  | 416 nM | Nc1cc(C(F)(F)F)c(-c2cc(N3CCOCC3)nc(N3CCOCC3)n2)cn1 [BUPARLISIB] |  |
| 81.3 nM | 528 nM | 74.5 nM | 341 nM | Nc1cc(CO)c(-c2nc(N3CCOCC3)nc(N3CCOCC3)n2)cn1 |  |
| 632 nM | 526 nM | 32.8 nM | 942 nM | Nc1cc(C(F)F)c(-c2nc(N3CCOCC34CCC4)nc(N3CCOCC34CCC4)n2)cn1 |  |
| 2230 nM | 395 nM | 60 nM | 650 nM | Nc1cc(C(F)F)c(-c2nc(N3C4CCC3COC4)cc(N3C4CCC3COC4)n2)cn1 |  |
| 2190 nM | 318 nM | 30 nM | 520 nM | Nc1cc(C(F)(F)F)c(-c2cc(N3C4CCC3COC4)nc(N3C4CCC3COC4)n2)cn1 |  |
| 633 nM | 310 nM | 12.6 nM | 364 nM | C[C@@H]1COCCN1c1nc(-c2cnc(N)cc2C(F)F)nc(N2CCOC[C@H]2C)n1 |  |
| 1300 nM | 301 nM | 13.9 nM | 630 nM | Nc1cc(C(F)F)c(-c2nc(N3CC4CCC(C3)O4)nc(N3CC4CCC(C3)O4)n2)cn1 |  |
| 64 nM | 294 nM | 21.1 nM | 379 nM | C[C@H]1COC[C@H](C)N1c1nc(-c2cnc(N)cc2C(F)F)nc(N2[C@@H](C)COC[C@@H]2C)n1 |  |
| 29 nM | 256 nM | 42 nM | 243 nM | Nc1cc(C(F)F)c(-c2nc(N3CCOCC3)cc(N3CCOCC3)n2)cn1 |  |
| 68.6 nM | 218 nM | 54.3 nM | 397 nM | Nc1cc(CF)c(-c2nc(N3CCOCC3)nc(N3CCOCC3)n2)cn1 |  |
| 32.2 nM | 209 nM | 13.6 nM | 354 nM | CC[C@@H]1COCCN1c1nc(-c2cnc(N)cc2C(F)F)nc(N2CCOC[C@H]2CC)n1 |  |
| 18 nM | 184 nM | 35 nM | 207 nM | Nc1cc(C(F)F)c(-c2cc(N3CCOCC3)nc(N3CCOCC3)n2)cn1 |  |
| 141 nM | 160 nM | 3.5 nM | 252 nM | C[C@@H]1COC[C@H](C)N1c1nc(-c2cnc(N)cc2C(F)F)nc(N2[C@H](C)COC[C@@H]2C)n1 |  |
| 20.8 nM | 138 nM | 9.6 nM | 147 nM | C[C@@H]1COCCN1c1nc(-c2cnc(N)cc2C(F)F)nc(N2CCOCC2)n1 |  |
|  | 118 nM |  | 102 nM | Nc1cc(C(F)F)c(-c2nc(N3CCOCC3)nc(N3CCOCC3)n2)cn1 |  |
| 23.7 nM | 112 nM | 3.4 nM | 144 nM | Nc1cc(C(F)F)c(-c2nc(N3CCOCC3)nc(N3CC4CCC(C3)O4)n2)cn1 |  |
